Test results as given in ChEMBL document CHEMBL1201862, “PubChem BioAssay data set” (2004).
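Dose response: 5 concentrations. Exposure: 48 h. Format: 96-well plates. Endpoint: linear interpolation; highest concentration if not reached. Abbreviation: GI50, concentration required for 50% inhibition of growth.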 Activity calls are given as the source filed them. Rule as the data show it: active = GI50 up to about 1.1 µM and inactive = higher.

Legend:
Assay in all cases: NCI-60 cell line screen, 48 h
[1] = system: DU-145
[2] = system: HOP-62
[3] = system: U-251
[4] = system: CCRF-CEM
[5] = system: SNB-19
[6] = system: UACC-62
[7] = system: OVCAR-4
[8] = system: RPMI-8226
[9] = system: CAKI-1
[10] = system: HCT-15
[11] = system: RXF 393
[12] = system: MOLT-4
[13] = system: MCF7
[14] = system: A549
[15] = system: UO-31
[16] = system: M14
[17] = system: Hs-578T
[18] = system: MDA-MB-435
[19] = system: SK-OV-3
[20] = system: OVCAR-5
[21] = system: OVCAR-8
[22] = system: HCT-116
[23] = system: COLO 205
[24] = system: MDA-MB-231
[25] = system: OVCAR-3
[26] = system: EKVX
[27] = system: KM12
[28] = system: Malme-3M
[29] = system: SK-MEL-2
[30] = system: NCI-H460
[31] = system: NCI-H226
[32] = system: NCI/ADR-RES
[33] = system: SK-MEL-28
[34] = system: T47D
[35] = system: BT-549
[36] = system: 786-0
[37] = system: NCI-H23
[38] = system: HL-60
[39] = system: ACHN
[40] = system: HOP-92
[41] = system: SF-268
[42] = system: HT-29
[43] = system: SF-295
[44] = system: NCI-H522
[45] = system: UACC-257
[46] = system: A498
[47] = system: TK-10
[48] = system: SF-539
[49] = system: K562
[50] = system: MDA-N
[51] = system: SR
[52] = system: LOX IMVI
[53] = system: SK-MEL-5
[54] = system: HCC 2998
[55] = system: SN12C
[56] = system: SW-620
[57] = system: PC-3
[58] = system: IGROV-1

Measured: GI50

COc1ccc(N2C(=O)/C(=C\c3cc(OC)c(OC)c(OC)c3)SC2c2ccccc2)cc1 (stereo not given)
inactive: [1] > 100 µM | [2] > 100 µM | [3] 56.5 µM | [4] 21.2 µM | [5] > 100 µM | [6] 58.9 µM | [7] 79.8 µM | [8] 31.3 µM | [9] > 100 µM | [11] 42.1 µM | [12] > 100 µM | [13] 44.2 µM | [14] > 100 µM | [15] 46.7 µM | [16] 55.7 µM | [17] 50.9 µM | [18] 27.4 µM | [19] 81.7 µM | [20] > 100 µM | [21] 95.9 µM | [22] 71.9 µM | [23] 62.5 µM | [24] > 100 µM | [25] > 100 µM | [26] 83.9 µM | [27] 51.6 µM | [28] 54.6 µM | [29] > 100 µM | [30] 67 µM | [31] > 100 µM | [32] 34.8 µM | [33] > 100 µM | [34] 42.6 µM | [35] 26.1 µM | [36] > 100 µM | [37] 33.1 µM | [38] 10.4 µM | [39] 62.4 µM | [40] > 100 µM | [41] > 100 µM | [42] > 100 µM | [43] 50.5 µM | [44] 16.6 µM | [45] 57.3 µM | [46] > 100 µM | [47] > 100 µM | [48] > 100 µM | [49] 38.3 µM | [50] 25.4 µM | [51] 28.4 µM | [52] 29.6 µM | [53] 23.7 µM | [54] > 100 µM | [55] > 100 µM | [56] > 100 µM
58.2 µM: [10]

CC(C)/C(Cl)=N\OC(=O)Nc1ccc(F)cc1
3.48 µM: [10]
inactive: [1] 16.3 µM | [2] 19.2 µM | [3] 15.6 µM | [5] 19.2 µM | [6] 16 µM | [57] 17.4 µM | [8] 1.94 µM | [11] 16.1 µM | [12] 1.66 µM | [13] 4.62 µM | [14] 17.4 µM | [58] 14.8 µM | [15] 5.85 µM | [16] 4.06 µM | [17] 24.7 µM | [19] 17.8 µM | [20] 14.6 µM | [21] 12.8 µM | [22] 6.61 µM | [23] 2.63 µM | [24] 3.47 µM | [25] 8.22 µM | [26] 5.62 µM | [27] 16.6 µM | [28] 1.95 µM | [29] 17.7 µM | [30] 18.1 µM | [31] 18.2 µM | [32] 6.9 µM | [33] 5.81 µM | [34] 6.53 µM | [35] 11.2 µM | [36] 5.18 µM | [37] 18.2 µM | [38] 1.55 µM | [39] 3.55 µM | [41] 24.6 µM | [42] 2.04 µM | [43] 14.4 µM | [44] 1.52 µM | [45] 14.3 µM | [46] 14.2 µM | [47] 4.8 µM | [48] 16.9 µM | [49] 1.5 µM | [50] 8.26 µM | [51] 1.68 µM | [52] 2.05 µM | [53] 13.6 µM | [54] 15.7 µM | [55] 5.87 µM | [56] 1.69 µM
active: [4] 0.916 µM
